Source: patent US12584919B2, “Enhancing anti-tumor response in melanoma cells with defective sting signaling” (H. Lee Moffitt Cancer Center and Research Institute, Inc., priority 2018, dated 2026)
Entries after “also recorded” stand apart in the source; their conditions may differ.

Tests used:
[1] = test system: melanoma cell lines lacking STING; test: CXCL-10 induction in 5AZADC-treated melanoma cells after STING agonist stimulation; settings: 5AZADC-treated cell lines lacking STING, then stimulated with the STING agonist 2′3′-cGAMP
[2] = test system: melanoma cell lines lacking STING; test: STING/cGAS expression by immunoblot after demethylating agent treatment
Source text: STING and cGAS expression were examined in a panel of human melanoma cell lines by immunoblot.

[3] = test system: human melanoma cell lines (WM39, WM3629, 526-MEL) co-cultured with HLA-matched TIL; test: Co-culture assay of melanoma cells with HLA-matched TIL, cytokine release by ELISA
Description: TIL production of IFN-γ and ^51Cr release was assessed for cytotoxicity.
After 24 hours of incubation at 37° C. in a humidified CO2 incubator, the supernatant was harvested for detection of IFN-γ release using enzyme-linked immunosorbent assay (Human IFN-γ Quantikine ELISA Kit, R&D Systems). For the MHC class I blocking assay, melanoma cells were incubated with W6/32 (anti-HLA-A,B,C monoclonal antibody, Biolegend) at a final concentration of 50 μg/mL for 1 hour at 37° C. prior to the addition of TIL.

[4] = test system: human melanoma cell lines; test: IRF3 phosphorylation by immunoblot after STING agonist stimulation; type: cell-based
Source text: Proteins were extracted with RIPA buffer (ThermoFisher Scientific) containing protease inhibitors (Thermo Scientific). Protein extracts from NK92, a natural killer cell line, was used as a positive control for the expression of STING and cGAS (Souza-Fonseca-Guimaraes F, et al. J Biol Chem. 2013 288:10715-21). Equal amounts of proteins were resolved on SDS-PAGE gels (Bio-Rad) and transferred to polyvinylidene fluoride (PVDF) membranes (Bio-Rad). After blocking with 5% non-fat dry milk, membranes were incubated with antibodies specific for STING, cGAS, p-IRF3, IRF3 (all from Cell Signaling) and β-actin (Sigma Aldrich). Following incubation with appropriate secondary antibodies, bands were visualized using an enhanced chemiluminescence detection system.

[5] = test system: human melanoma cell lines; test: CXCL10 and IFN-β release (ELISA) after STING agonist stimulation; type: cell-based
[6] = test system: human melanoma cell lines (WM39, WM3629, 526-MEL) as targets, TIL 195 as effector cells; test: 51Cr release cytotoxicity assay, lysis of melanoma targets by TIL
Description: After 4 hours, supernatant was harvested and measured in Trilux (PerkinElmer). Each point represented the average of quadruplicate wells and percentage of specific lysis was calculated by: (experimental release—minimum release)/(maximum release-minimum release)×100.

[7] = test system: human melanoma cell lines; test: Flow cytometry of MHC class I (HLA-A.B.C) surface expression; type: cell-based
Description: DAPI (Sigma-Aldrich) was used as a viability dye. Sample acquisition was performed on an LSR II flow cytometer (BD Biosciences), and the data were analyzed using FlowJo software (Tree Star).

[8] = WM9 and WM39 cell lines, 2′3′-cGAMP stimulation

## Nc1ncn([C@H]2C[C@H](O)[C@@H](CO)O2)c(=O)n1 [5AZADC, 5-aza-2′-deoxycytidine]
[1]
  CXCL-10 induction: induction of CXCL-10; also recorded: production of CXCL-10; also recorded: STING-dependent CXCL-10 induction
[2]; 5AZADC-treated melanoma cell lines lacking STING
  STING expression: Partial induction of STING expression; also recorded: reconstitution of STING expression
[2]; A375, G361, MeWO, SK-MEL-5 and other human melanoma cell lines with and without 5AZADC (FIG. 7)
  STING and cGAS expression: partially recapitulated

## Nc1nc2c(ncn2[C@@H]2O[C@@H]3COP(=O)(O)O[C@H]4[C@@H](O)[C@H](n5cnc6c(N)ncnc65)O[C@@H]4COP(=O)(O)O[C@@H]2[C@@H]3O)c(=O)[nH]1 [2′3′-cGAMP, 2′3′-cyclic-GMP-AMP]
[3]; 526-MEL / TIL 19 co-culture
  IFN-γ secretion: did not induce any increased IFN-γ secretion
[3]; 526-MEL / TIL 195 co-cultures
  IFN-γ release: no increase in IFN-γ release
[3]; Example 2, STING-positive cell lines responding strongly, cultured with HLA-matched TILs, p<0.01
  increase in IFN-γ secretion: ≤ 15 fold
[3]; MART-1 pulsed WM39 / TIL 195 co-culture, p<0.001
  IFN-γ secretion by TIL: significantly increased
[3]; MART-1 pulsed WM39 with two additional HLA-A2 TIL, p<0.01 vs untreated co-cultures
  IFN-γ production by TIL: higher levels of IFN-γ production
[3]; WM39 / TIL 19 co-cultures, p<0.001
  IFN-γ release, higher than the untreated group: 24 fold
[3]; WM39 / TIL 195 and sh-control / TIL 195 co-cultures, P<0.05
  higher IFN-γ release: more than 25 fold
[3]; WM39 / TIL 195 co-culture groups with 2′3′-cGAMP
  IFN-β in co-culture supernatants: Induction of IFN-β
[3]; WM39 / TIL 195 co-culture, with vs without 2′3′-cGAMP
  IFN-γ secretion by TIL: significantly enhanced
[3]; WM3629 / TIL 195 co-cultures, p<0.01
  IFN-γ release: increased
[3]; control group containing TIL with 2′3′-cGAMP, no tumor cells
  IFN-β induction: not observed
[3]; sh-STING (STING knockdown WM39) / TIL 195 co-cultures
  IFN-γ induction: no increase in IFN-γ induction
[4]; 5 STING-positive cell lines (WM164, WM9, WM39, A375, WM1366), 2′3′-cGAMP 10 μg/ml with Lipofectamine, 4 h
  phosphorylation of IRF3: 4 of 5 STING-positive cell lines
[4]; WM2032 (STING-negative) cell line, 2′3′-cGAMP stimulated
  phosphorylation of IRF3: not detected
[5]; 526-MEL (HLA-A2) cell line
  response to 2′3′-cGAMP stimulation (p-IRF3, CXCL10, IFN-β): did not respond
[5]; [8]
  CXCL10 induction in cell culture supernatants: detectable levels
  IFN-β induction in cell culture supernatants: detectable levels
[6]; 526-MEL cells
  lysis by TIL 195 (lytic units): did not induce any increase in lysis
[6]; 526-MEL targets, defective in STING signaling
  specific lysis by TIL 195: did not alter their specific lysis
[6]; Example 2, STING-responsive cell lines with HLA-matched TILs, p<0.05
  augmentation of TIL cytotoxicity: > 2 fold
[6]; WM39 and MART-1-pulsed WM39 cells vs their controls
  increase in lytic potential of TIL 195 (lytic units): > 10 fold
[6]; WM39 and MART-1 pulsed WM39 targets, p<0.05
  increase in lysis by TIL 195: > 2 fold
[6]; WM39 and sh-control targets
  cytolytic activity of TIL 195: increased cytolytic activity
[6]; WM39 target cells with or without 2′3′-cGAMP in the absence of TIL
  cytotoxicity of the STING agonist alone: did not result in any major cytotoxicity
[6]; WM3629 cells
  lysis by TIL 195 (lytic units): greater lysis
[6]; WM3629 targets, p<0.05 vs controls
  cytotoxicity (lysis by TIL 195): Increased
[6]; sh-STING (STING knockdown WM39) targets
  cytolytic activity of TIL 195: complete blockade of this response
[7]; 1205Lu, WM266-4, WM2032 and 526-MEL cell lines with impaired STING signaling
  expression of MHC class I: no significant changes
[7]; Example 1, human melanoma cell lines (FIG. 14)
  MHC-I/HLA-A.B.C expression: upregulation of MHC I
[7]; WM39 and sh-control cells, p<0.01
  higher surface expression of MHC class I: more than 2.5 fold
[7]; sh-STING (STING knockdown WM39) cells
  surface expression of MHC class I: did not cause any increase in MHC class I
